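Five concentrations, 48 hours, 96-well plates. The concentration for 50% growth inhibition is given as GI50.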 Activity calls are given as the source filed them. Cut-off read from the data, not from the text of the source: active = GI50 up to about 1.1 µM and inactive = higher. Peptide text beside a SMILES is read from it. * marks the point of attachment. Cbz = O=C(OCc1ccccc1)*; OBn = c1ccc(CO*)cc1
Tests used:
Test in all cases: inhibition of tumour cell growth, NCI panel, 48 h
SK-OV-3 = test system: SK-OV-3
SW-620 = test system: SW-620
RXF 393 = test system: RXF 393
Malme-3M = test system: Malme-3M
HCT-15 = test system: HCT-15
SN12C = test system: SN12C
MCF7 = test system: MCF7
UACC-62 = test system: UACC-62
HCT-116 = test system: HCT-116
MDA-N = test system: MDA-N
SK-MEL-28 = test system: SK-MEL-28
MDA-MB-231 = test system: MDA-MB-231
T47D = test system: T47D
ACHN = test system: ACHN
COLO 205 = test system: COLO 205
SR = test system: SR
HL-60 = test system: HL-60
LOX IMVI = test system: LOX IMVI
A498 = test system: A498

| SMILES | GI50 (SK-OV-3) | GI50 (SW-620) | GI50 (RXF 393) | GI50 (Malme-3M) | GI50 (HCT-15) [µM] | GI50 (SN12C) | GI50 (MCF7) | GI50 (UACC-62) | GI50 (HCT-116) | GI50 (MDA-N) | GI50 (SK-MEL-28) | GI50 (MDA-MB-231) | GI50 (T47D) | GI50 (ACHN) | GI50 (COLO 205) | GI50 (SR) | GI50 (HL-60) | GI50 (LOX IMVI) | GI50 (A498) |
| --- | --- | --- | --- | --- | --- | --- | --- | --- | --- | --- | --- | --- | --- | --- | --- | --- | --- | --- | --- |
| CC(=O)Oc1ccc2c(c1)[nH]c1c3ccc(OC(C)=O)cc3oc(=O)c21 | 26 µM (inactive) | 25 µM (inactive) | 26.7 µM (inactive) | 32.8 µM (inactive) | 37 | 30.5 µM (inactive) | 24.9 µM (inactive) | 28.1 µM (inactive) | 23.3 µM (inactive) | 33.3 µM (inactive) | 38 µM (inactive) | 29.2 µM (inactive) | 20.4 µM (inactive) | 27 µM (inactive) | 30.7 µM (inactive) | 22.8 µM (inactive) | – | – | – |
| CC(C(N)C(=O)NC(C(=O)O)C1OC(n2ccc(=O)[nH]c2=O)C(O)C1O)C(O)c1ccc(O)cn1 (stereo not drawn) | – | > 100 µM (inactive) | – | – | > 100 | > 100 µM (inactive) | > 100 µM (inactive) | > 100 µM (inactive) | > 100 µM (inactive) | > 100 µM (inactive) | > 100 µM (inactive) | > 100 µM (inactive) | > 100 µM (inactive) | > 100 µM (inactive) | > 100 µM (inactive) | > 100 µM (inactive) | > 100 µM (inactive) | > 100 µM (inactive) | – |
| N#Cc1nc(Cc2ccccc2)oc1N | > 100 µM (inactive) | > 100 µM (inactive) | > 100 µM (inactive) | > 100 µM (inactive) | > 100 | > 100 µM (inactive) | > 100 µM (inactive) | – | > 100 µM (inactive) | > 100 µM (inactive) | > 100 µM (inactive) | > 100 µM (inactive) | > 100 µM (inactive) | > 100 µM (inactive) | > 100 µM (inactive) | > 100 µM (inactive) | – | > 100 µM (inactive) | – |
| CCOC(=O)C#Cc1ccc([N+](=O)[O-])cc1 | 12.7 µM (inactive) | 2.28 µM (inactive) | 1.28 µM (inactive) | – | 1.82 | 1.69 µM (inactive) | 1.24 µM (inactive) | 1.98 µM (inactive) | 1.66 µM (inactive) | 3.19 µM (inactive) | 5.52 µM (inactive) | 2.28 µM (inactive) | 2.01 µM (inactive) | 3.21 µM (inactive) | 1.72 µM (inactive) | 1.77 µM (inactive) | 1.73 µM (inactive) | 1.34 µM (inactive) | 17.5 µM (inactive) |
| O=C1/C(=C/c2ccccc2[N+](=O)[O-])N=C(c2ccccc2)N1c1nc2ccccc2s1 | – | 34.4 µM (inactive) | 16.9 µM (inactive) | – | 17.5 | 25 µM (inactive) | 13 µM (inactive) | – | 17.9 µM (inactive) | 26.1 µM (inactive) | 31.3 µM (inactive) | 45.9 µM (inactive) | 21.7 µM (inactive) | 23.2 µM (inactive) | – | 12.9 µM (inactive) | 26.1 µM (inactive) | 22 µM (inactive) | 28.1 µM (inactive) |
| COC(=O)CNC(=O)C(C)NC(=O)C(CC(=O)OCc1ccccc1)NC(=O)OCc1ccccc1 (stereo not drawn) (Cbz-Asp(OBn)-Ala-Gly-OMe; configuration not given here) | > 100 µM (inactive) | 35.7 µM (inactive) | 13.8 µM (inactive) | 45.2 µM (inactive) | 53.7 | 91.6 µM (inactive) | 55.7 µM (inactive) | 58.3 µM (inactive) | 30.6 µM (inactive) | 53.6 µM (inactive) | 80.2 µM (inactive) | 6.64 µM (inactive) | 21.6 µM (inactive) | – | 38.4 µM (inactive) | 35.5 µM (inactive) | – | – | – |
| Cc1cc(OP2(=O)NCc3ncccc3O2)ccc1Cl (stereo not drawn) | – | > 100 µM (inactive) | > 100 µM (inactive) | – | > 100 | > 100 µM (inactive) | > 100 µM (inactive) | > 100 µM (inactive) | > 100 µM (inactive) | > 100 µM (inactive) | > 100 µM (inactive) | > 100 µM (inactive) | > 100 µM (inactive) | > 100 µM (inactive) | > 100 µM (inactive) | > 100 µM (inactive) | – | > 100 µM (inactive) | > 100 µM (inactive) |
| O=C1C(O)=C(CCCCCCCCC2CCCCC2)C(=O)c2ccccc21 [MENOCTONE] | 16.1 µM (inactive) | 4.23 µM (inactive) | – | 1.3 µM (inactive) | 4.69 | 7.89 µM (inactive) | 6.41 µM (inactive) | 6.05 µM (inactive) | 3.33 µM (inactive) | 4.75 µM (inactive) | 11.4 µM (inactive) | 4.56 µM (inactive) | 5.5 µM (inactive) | 2.93 µM (inactive) | 8.45 µM (inactive) | 6.4 µM (inactive) | 1 µM (active) | 3.6 µM (inactive) | – |
| C#Cc1cc(Br)c(OC(=O)C(C)(C)C)c(-c2cc(C#C)cc(Br)c2OC(=O)C(C)(C)C)c1 | > 100 µM (inactive) | 27 µM (inactive) | 17.4 µM (inactive) | > 100 µM (inactive) | 32.6 | 53 µM (inactive) | 26.7 µM (inactive) | 81.5 µM (inactive) | 21 µM (inactive) | 31.8 µM (inactive) | 61.2 µM (inactive) | 35.1 µM (inactive) | 18.3 µM (inactive) | 21.4 µM (inactive) | 31 µM (inactive) | – | 6.98 µM (inactive) | 19.7 µM (inactive) | 57.7 µM (inactive) |
| CCOC(=O)/C=C(/C(=O)OCC)n1ccc(=O)n(Cc2cn(COCCOC(C)=O)nn2)c1=O | > 100 µM (inactive) | 7.05 µM (inactive) | 25.6 µM (inactive) | – | 20.3 | 34.8 µM (inactive) | 15 µM (inactive) | 18.3 µM (inactive) | 31.6 µM (inactive) | 50 µM (inactive) | 16.3 µM (inactive) | 28.8 µM (inactive) | 32.1 µM (inactive) | 14.8 µM (inactive) | 4.91 µM (inactive) | 19.4 µM (inactive) | – | 20.9 µM (inactive) | 20.5 µM (inactive) |
| COc1cc(/C=C2\N=C(c3ccccc3)N(c3nc4cc(C)c(C)cc4s3)C2=O)cc(OC)c1OC | 27.7 µM (inactive) | 29.4 µM (inactive) | 19.3 µM (inactive) | – | 30.3 | 34.8 µM (inactive) | 18.5 µM (inactive) | 33.3 µM (inactive) | 20.2 µM (inactive) | 16.1 µM (inactive) | 62.2 µM (inactive) | 43.6 µM (inactive) | 40.9 µM (inactive) | 27 µM (inactive) | 27.5 µM (inactive) | 18.4 µM (inactive) | 17.8 µM (inactive) | 22.4 µM (inactive) | – |
| COC(=O)[C@]1(NC(=O)c2ccccc2)C[C@H]1C=O | 93.8 µM (inactive) | > 100 µM (inactive) | > 100 µM (inactive) | > 100 µM (inactive) | > 90.6 | > 100 µM (inactive) | > 100 µM (inactive) | > 64.7 µM (inactive) | > 100 µM (inactive) | > 100 µM (inactive) | > 100 µM (inactive) | > 100 µM (inactive) | > 100 µM (inactive) | > 100 µM (inactive) | > 100 µM (inactive) | 28.2 µM (inactive) | – | 98.6 µM (inactive) | > 71.8 µM (inactive) |
| CCCCCCCCCCCC[C@@H](O)[C@H]1CC[C@H]([C@H]2CC[C@H]([C@H](O)CC[C@H](O)CCCCCCCC3=C[C@H](C)OC3=O)O2)O1 | – | 1.94 µM (inactive) | 2.12 µM (inactive) | – | 2.03 | 3.22 µM (inactive) | 1.15 µM (inactive) | 1.02 µM (active) | 1.23 µM (inactive) | 1.9 µM (inactive) | 1.63 µM (inactive) | 2.62 µM (inactive) | 3.4 µM (inactive) | 0.0933 µM (active) | 1.86 µM (inactive) | 2.03 µM (inactive) | 1.26 µM (inactive) | 1.17 µM (inactive) | 2.52 µM (inactive) |
| CCOC(=O)CN1CCNCCN(CC(=O)OCC)CCNCC1 | > 100 µM (inactive) | > 10 µM (inactive) | > 100 µM (inactive) | – | > 100 | > 100 µM (inactive) | > 100 µM (inactive) | > 100 µM (inactive) | > 100 µM (inactive) | > 100 µM (inactive) | > 100 µM (inactive) | > 100 µM (inactive) | > 100 µM (inactive) | > 100 µM (inactive) | > 100 µM (inactive) | 78.7 µM (inactive) | > 100 µM (inactive) | > 100 µM (inactive) | > 100 µM (inactive) |
| CCOC(=O)c1nc2ccc(C(F)(F)F)cc2nc1Oc1cc(OC)cc(OC)c1 | > 100 µM (inactive) | > 100 µM (inactive) | > 100 µM (inactive) | 35.8 µM (inactive) | > 100 | > 100 µM (inactive) | > 100 µM (inactive) | > 100 µM (inactive) | > 100 µM (inactive) | > 100 µM (inactive) | > 100 µM (inactive) | > 100 µM (inactive) | > 100 µM (inactive) | > 100 µM (inactive) | > 100 µM (inactive) | – | > 100 µM (inactive) | > 100 µM (inactive) | > 100 µM (inactive) |
| O=c1[nH][nH]c(=O)n1/N=C/c1ccccc1 | > 100 µM (inactive) | > 100 µM (inactive) | – | – | > 100 | > 100 µM (inactive) | > 100 µM (inactive) | > 100 µM (inactive) | > 100 µM (inactive) | > 100 µM (inactive) | > 100 µM (inactive) | > 100 µM (inactive) | > 100 µM (inactive) | > 100 µM (inactive) | > 100 µM (inactive) | > 100 µM (inactive) | > 100 µM (inactive) | > 100 µM (inactive) | > 100 µM (inactive) |

From ChEMBL document CHEMBL1201862, “PubChem BioAssay data set” (2004)
